A compilation of properties of binary mixtures (doi:10.1021/acs.jced.0c00740)

Assay: xn = mol fraction of the nth substance listed
Settings: 101 kPa

C[NH+](C)C.O=S(=O)([N-]S(=O)(=O)C(F)(F)F)C(F)(F)F + N#CCCCC#N
x1 = 0.2167
Settings	viscosity [mPa·s]
278 K	23
283 K	18.87
293 K	13.35
303 K	9.89
308 K	8.64
313 K	7.609
323 K	6.028
328 K	5.417
333 K	4.899
338 K	4.457
343 K	4.07
348 K	3.741

C[S+](C)C.O=S(=O)([N-]S(=O)(=O)C(F)(F)F)C(F)(F)F + N#CCCCC#N
x1 = 0.2085
Settings	viscosity [mPa·s]
283 K	18.02
288 K	15.07
293 K	12.76
298 K	10.92
308 K	8.25
313 K	7.26
323 K	5.744
343 K	3.871
353 K	3.283
